Laboratory results published in PubChem BioAssay AID493137 (Sanford-Burnham Center for Chemical Genomics, 2011).
Several values for one entry are separate records, joined by “and”; a condition that tells them apart may be missing. Identical values can stand only once. Activity calls are given as the source filed them.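 Rule for the calls: active = compounds whose mean IC50 is under 100 micromolar in the phosphatase inhibition dose series; inactive = the rest.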

Biological target: Intestinal-type alkaline phosphatase (Homo sapiens) (UniProt P09923)
Sequence (P09923 whole entry, looked up): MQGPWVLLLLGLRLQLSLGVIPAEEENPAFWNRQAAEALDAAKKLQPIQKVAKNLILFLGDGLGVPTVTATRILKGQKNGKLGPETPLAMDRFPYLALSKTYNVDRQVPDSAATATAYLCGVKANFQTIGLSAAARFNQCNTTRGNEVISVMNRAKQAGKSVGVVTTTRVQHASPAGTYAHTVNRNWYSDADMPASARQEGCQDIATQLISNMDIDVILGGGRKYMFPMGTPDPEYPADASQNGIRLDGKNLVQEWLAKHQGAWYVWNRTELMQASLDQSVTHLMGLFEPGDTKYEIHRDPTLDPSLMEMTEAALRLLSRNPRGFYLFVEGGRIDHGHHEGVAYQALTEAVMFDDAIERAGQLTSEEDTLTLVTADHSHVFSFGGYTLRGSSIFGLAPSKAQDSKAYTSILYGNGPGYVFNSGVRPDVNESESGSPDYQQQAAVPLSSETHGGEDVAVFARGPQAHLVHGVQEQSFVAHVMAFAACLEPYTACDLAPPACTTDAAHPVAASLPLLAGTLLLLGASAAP
Test: potency of intestinal alkaline phosphatase inhibition – biochemical, luminescence, SAR follow-up (AID 493137)
Conditions: purified human IAP, CDP-Star luminescence, 30 min

| SMILES | IC50 |
| --- | --- |
| COc1cc([N+](=O)[O-])ccc1NC(=S)NCCC(c1ccccc1)c1ccccc1 | > 100 µM (inactive) |
| COc1ccc(-c2csc(Nc3cccc4ccccc34)n2)cc1F | > 100 µM (inactive) |
| COC(=O)/C=C1/S/C(=N/NC(=O)c2ccc(Cl)cc2Cl)NC1=O | > 100 µM (inactive) |
| NS(=O)(=O)c1ccc(Nc2nc(-c3ccc(O)c(O)c3)cs2)cc1 | 45.1 µM |
| COc1cc(/C=N/N=C2\NC(=O)C(CC(=O)O)S2)cc(OC)c1OC (stereo unspecified) | > 100 µM (inactive) |
| CCOc1cc(/C=N/N=C2\NC(=O)C(CC(=O)O)S2)ccc1O (stereo unspecified) | > 100 µM (inactive) |
| O=[N+]([O-])c1ccc(NC(=S)NCCC(c2ccccc2)c2ccccc2)cc1 | > 100 µM (inactive) |
| O=S(=O)(c1ccc(NC(=S)N/N=C/c2ccc(O)c(O)c2O)cc1)N1CCOCC1 | > 100 µM (inactive) |
| O=C(O)CC1S/C(=N/N=C/c2ccco2)NC1=O (stereo unspecified) | > 100 µM (inactive) |
| CCOc1ccc(Nc2nc(-c3ccc(O)c(O)c3)cs2)cc1 | > 100 µM (inactive) |
| COC(=O)/C=C1/S/C(=N/NC(=O)c2ccccc2)NC1=O | > 100 µM (inactive) |
| Cc1ccc(-c2ccc(/C=N/N=C3\NC(=O)C(CC(=O)O)S3)o2)c([N+](=O)[O-])c1 (stereo unspecified) | > 100 µM (inactive) |
| COC(=O)/C=C1/S/C(=N/NC(=O)c2ccccc2C)NC1=O | > 100 µM (inactive) |
| CCOc1cc(C=N/N=C2/NC(=O)C(CC(=O)O)S2)ccc1OCc1ccccc1Cl (stereo unspecified) | > 100 µM (inactive) |
| CN(C)S(=O)(=O)c1cccc(NC(=S)NN=Cc2ccc(O)c(O)c2O)c1 | > 100 µM (inactive) |
| COC(=O)/C=C1\SC(N=Nc2c(O)[nH]c3ccccc23)=NC1=O | > 100 µM (inactive) |
| O=S(=O)(c1ccc(NC(=S)N/N=C/c2ccc(O)c(O)c2)cc1)N1CCOCC1 | > 100 µM (inactive) |
| COc1cc(C=NN=C2SC(CC(=O)O)C(=O)N2c2ccc(O)cc2)ccc1O (stereo unspecified) | > 100 µM (inactive) |
| FC(F)(F)c1cccc(NC(=S)NCCC(c2ccccc2)c2ccccc2)c1 | > 100 µM (inactive) |
| Cc1cc(=O)oc2cc(NC(=S)NCCC(c3ccccc3)c3ccccc3)ccc12 | > 100 µM (inactive) |
| COC(=O)/C=C1/S/C(=N/NC(=O)c2ccccc2OC)NC1=O | > 100 µM (inactive) |
| COc1ccc(NC(=S)NCCC(c2ccccc2)c2ccccc2)cc1 | > 100 µM (inactive) |

| SMILES | IC50 |
| --- | --- |
| COC(=O)/C=C1\S/C(=N/N=C/c2ccc(Cl)cc2)NC1=O | > 100 µM (inactive) |
| N#CCCn1cc(/C=N/N=C2/NC(=O)C(CC(=O)O)S2)c(-c2ccc(F)cc2)n1 (stereo unspecified) | > 100 µM (inactive) |
| COc1ccc(C=NN=C2SC(CC(=O)O)C(=O)N2c2ccc(O)cc2)cc1 (stereo unspecified) | > 100 µM (inactive) |
| CCOc1cc(C=NNC(=S)NC2CCCCC2)ccc1O | > 100 µM (inactive) |
| CCN(CC)S(=O)(=O)c1ccc(-c2csc(=Nc3cccc4ccccc34)n2C)cc1 | > 100 µM (inactive) |
| COc1ccc(/C=N/N=C2/NC(=O)C(CC(=O)O)S2)cc1OC (stereo unspecified) | > 100 µM (inactive) |
| COc1cc(C=NNC(=S)Nc2cccc(S(=O)(=O)N(C)C)c2)cc(OC)c1O | > 100 µM (inactive) |
| O=S(=O)(Nc1ncccn1)c1ccc(NC(=S)NCCC(c2ccccc2)c2ccccc2)cc1 | > 100 µM (inactive) |
| S=C(NCCC(c1ccccc1)c1ccccc1)Nc1ccc(Cl)cc1Cl | > 100 µM (inactive) |
| O=[N+]([O-])c1ccccc1NC(=S)N/N=C/c1ccc(O)c(O)c1O | > 100 µM (inactive) |
| COc1ccc(C=NNC(=S)Nc2ccccc2[N+](=O)[O-])cc1O | > 100 µM (inactive) |
| COc1ccc(/C=N/N=C2\NC(=O)C(CC(=O)O)S2)c(OC)c1 (stereo unspecified) | > 100 µM (inactive) |
| COc1cc(C=NNC(=S)Nc2cccc(C(=O)O)c2)ccc1O | > 100 µM (inactive) |
| COc1cc(C=NNC(=S)Nc2cccc(S(=O)(=O)N(C)C)c2)ccc1O | > 100 µM (inactive) |
| CC(C)(C)c1ccc(/C=N/N=C2\NC(=O)C(CC(=O)O)S2)cc1 (stereo unspecified) | > 100 µM (inactive) |
| COc1ccc(-c2csc(Nc3cccc4ccccc34)n2)cc1 | > 100 µM (inactive) |
| COC(=O)/C=C1/S/C(=N/N=Cc2ccc(N(C)C)cc2)NC1=O | > 100 µM (inactive) |
| COC(=O)C/C=N/N=C1\NC(=O)/C(=C/C(=O)O)S1 | > 100 µM (inactive) |
| Oc1ccc(-c2csc(Nc3cccc4ccccc34)n2)cc1O | 33 µM and 46.8 µM |
| COC(=O)/C=C1\S/C(=N/N=C/CC(=O)OC)NC1=O | > 100 µM (inactive) |
| COc1ccc(C=Nn2c(=S)n(C)c3ccccc32)cc1OC | > 100 µM (inactive) |
| O=[N+]([O-])c1ccccc1NC(=S)NN=Cc1ccc(O)c(O)c1 | 76 µM |

Second part, the compound after the results:

| IC50 | SMILES |
| --- | --- |
| > 100 µM (inactive) | Cc1cccc(NC(=S)NN=Cc2ccc3c(c2)OCO3)c1 |
| > 100 µM (inactive) | Cc1cccc(C)c1NC(=S)N/N=C/c1ccc(O)c(O)c1O |
| > 100 µM (inactive) | Cc1cccc2sc(NNC(=O)c3ccc4c(c3)OCCO4)nc12 |
| > 100 µM (inactive) | Cc1ccc2sc(NNC(=O)c3ccc4c(c3)OCCO4)nc2c1C |
| > 100 µM (inactive) | Cc1ccc(Nc2nc(-c3ccc(O)cc3O)cs2)cc1F |
| 24.4 µM | Cc1ccc(Cl)cc1Nc1nc(-c2ccc(O)c(O)c2)cs1 |
| > 100 µM (inactive) | COc1ccc(Cl)cc1Nc1nc(-c2ccc(O)c(O)c2)cs1 |
| > 100 µM (inactive) | Cc1ccc(C)c(Nc2nc(-c3ccc(O)cc3O)cs2)c1 |
| > 100 µM (inactive) | Oc1ccc(-c2csc(Nc3ccccc3)n2)c(O)c1 |
| > 100 µM (inactive) | Cc1ccc(Nc2nc(-c3ccc(O)cc3O)cs2)cc1C |
| > 100 µM (inactive) | NS(=O)(=O)c1ccc(Nc2nc(-c3ccc(O)cc3O)cs2)cc1 |
| > 100 µM (inactive) | COc1cc(C(=O)NNC(=S)Nc2ccc(S(N)(=O)=O)cc2)cc(OC)c1OC |
| > 100 µM (inactive) | Cc1cccc(Nc2nc(-c3ccc(O)c(O)c3)cs2)c1 |
| > 100 µM (inactive) | CC(=NNC(=S)Nc1ccccc1)c1ccc2c(c1)OCO2 |
| > 100 µM (inactive) | Cn1c(=S)n(N=Cc2ccc3c(c2)OCO3)c2ccccc21 |
| > 100 µM (inactive) | COc1cc(/C=N/N=C2/SCC(=O)N2c2ccc(O)cc2)ccc1O |

| IC50 | SMILES |
| --- | --- |
| > 100 µM (inactive) | Cc1ccc(Nc2nc(-c3ccc(O)cc3O)cs2)cc1 |
| > 100 µM (inactive) | Cc1ccc2nc(NNC(=O)c3ccc4c(c3)OCCO4)sc2c1 |
| > 100 µM (inactive) and 96.6 µM | Cc1c(Cl)cccc1Nc1nc(-c2ccc(O)c(O)c2)cs1 |
| > 100 µM (inactive) | COc1ccc(C(=O)NNC(=S)NC2CCCCC2)cc1OC |
| 17.8 µM and 14.5 µM | CCc1ccccc1Nc1nc(-c2ccc(O)c(O)c2)cs1 |
| 11.6 µM | Oc1ccc(Nc2nc(-c3ccc(O)c(O)c3)cs2)cc1 |
| > 100 µM (inactive) | Oc1ccc(-c2csc(Nc3ccc(F)cc3)n2)cc1O |
| > 100 µM (inactive) | Cc1cccc(Nc2nc(-c3ccc(O)c(C(N)=O)c3)cs2)c1 |
| > 100 µM (inactive) | COC(=O)/C=C1/S/C(=N/NC(=O)c2ccc(OC)cc2)NC1=O |
| > 100 µM (inactive) | Cc1ccc(Nc2nc(-c3ccc(O)c(O)c3)cs2)cc1 |
| > 100 µM (inactive) | Cc1ccc(Nc2nc(-c3ccc(O)c(O)c3)cs2)cc1F |
| > 100 µM (inactive) | COc1cc([N+](=O)[O-])ccc1NC(=S)NNC(=O)c1ccc2c(c1)OCO2 |
| > 100 µM (inactive) | Cc1cccc(NC(=S)NNC(=O)c2ccc3c(c2)OCO3)c1 |
| > 100 µM (inactive) | COc1cccc(Nc2nc(-c3ccc(O)cc3)cs2)c1 |
| > 100 µM (inactive) | Cc1ccc(Nc2nc(-c3ccc(O)c(C(N)=O)c3)cs2)cc1 |
| > 100 µM (inactive) | Cc1cc(C)cc(Nc2nc(-c3ccc(O)cc3O)cs2)c1 |
